Here are results for one molecule from article PMC8160875 (Molecules, 2021).

The test system of one data set is LO2 cells. In words: MTT cytotoxicity assay, normal cell line LO2. It counts as cell-based, human. To be noted: L02; human normal cell line LO2, MTT, average of three determinations. An excerpt: (§1) Four human tumor cell lines (A549, H1975, NCI-H460, and MCF-7) and human normal cell line LO2 were selected to evaluate the antiproliferative activity of all target compounds in vitro. Olmutinib was used as a positive control. Results are summarized in Table 1, where the values are the average of at least three independent experiments. […] However, the antiproliferative activities of the compounds that were substituted with the anisidine side chain performed better than the cyano group chain.

The target in another data set is PI3Kα (Homo sapiens, UniProt P42336). Briefly: Kinase-Glo Luminescent Kinase Assay, PI3Kα. It counts as biochemical. Conditions: average of three determinations. The procedure: Compounds H7 and H10 had excellent antiproliferative activity and were further screened out for kinase inhibition testing. We evaluated compounds H7 and H10 with EGFR^T790M/L858R kinases and PI3Kα kinases.
The specific operation was carried out according to our previous research.

Another data set deals with A549 cells. In words: MTT cytotoxicity assay, A549. Type of data set: cell-based. Conditions: Homo sapiens, A549 cell line, average of three determinations.
Description: as §1

The subject of another data set is A549 (EGFR^WT) cells. To be noted: quoted in the introduction; read-out: IC50 against A549 (EGFR^WT) cells; cited from earlier work.
For data set [1] the following is noted: quoted in the introduction; cited from earlier work.
The test system of a further data set is H1975 cells. Briefly: MTT cytotoxicity assay, H1975. It counts as cell-based. To be noted: Homo sapiens, NCI-H1975, H1975 cell line, average of three determinations.
Description: as §1

Data set [2] concerns HCC827 (EGFR^dell19) cells. To be noted: quoted in the introduction; read-out: IC50 against HCC827 (EGFR^dell19) cells; cited from earlier work.
A further data set deals with NCI-H460 cells. In words: MTT cytotoxicity assay, NCI-H460. Type of data set: cell-based. Conditions: Homo sapiens, NCI-H460 cell line, average of three determinations.
Description: as §1

The subject of another data set is MCF-7 cells. Briefly: MTT cytotoxicity assay, MCF-7. Type of data set: cell-based. To be noted: Homo sapiens, MCF7, MCF-7 cell line, average of three determinations.
Description: as §1

Data set [3] concerns H1975 (EGFR^L858R/T790M) cells. To be noted: quoted in the introduction; read-out: IC50 against H1975 (EGFR^L858R/T790M) cells; cited from earlier work.

Sequence of PI3Kα (P42336 whole entry): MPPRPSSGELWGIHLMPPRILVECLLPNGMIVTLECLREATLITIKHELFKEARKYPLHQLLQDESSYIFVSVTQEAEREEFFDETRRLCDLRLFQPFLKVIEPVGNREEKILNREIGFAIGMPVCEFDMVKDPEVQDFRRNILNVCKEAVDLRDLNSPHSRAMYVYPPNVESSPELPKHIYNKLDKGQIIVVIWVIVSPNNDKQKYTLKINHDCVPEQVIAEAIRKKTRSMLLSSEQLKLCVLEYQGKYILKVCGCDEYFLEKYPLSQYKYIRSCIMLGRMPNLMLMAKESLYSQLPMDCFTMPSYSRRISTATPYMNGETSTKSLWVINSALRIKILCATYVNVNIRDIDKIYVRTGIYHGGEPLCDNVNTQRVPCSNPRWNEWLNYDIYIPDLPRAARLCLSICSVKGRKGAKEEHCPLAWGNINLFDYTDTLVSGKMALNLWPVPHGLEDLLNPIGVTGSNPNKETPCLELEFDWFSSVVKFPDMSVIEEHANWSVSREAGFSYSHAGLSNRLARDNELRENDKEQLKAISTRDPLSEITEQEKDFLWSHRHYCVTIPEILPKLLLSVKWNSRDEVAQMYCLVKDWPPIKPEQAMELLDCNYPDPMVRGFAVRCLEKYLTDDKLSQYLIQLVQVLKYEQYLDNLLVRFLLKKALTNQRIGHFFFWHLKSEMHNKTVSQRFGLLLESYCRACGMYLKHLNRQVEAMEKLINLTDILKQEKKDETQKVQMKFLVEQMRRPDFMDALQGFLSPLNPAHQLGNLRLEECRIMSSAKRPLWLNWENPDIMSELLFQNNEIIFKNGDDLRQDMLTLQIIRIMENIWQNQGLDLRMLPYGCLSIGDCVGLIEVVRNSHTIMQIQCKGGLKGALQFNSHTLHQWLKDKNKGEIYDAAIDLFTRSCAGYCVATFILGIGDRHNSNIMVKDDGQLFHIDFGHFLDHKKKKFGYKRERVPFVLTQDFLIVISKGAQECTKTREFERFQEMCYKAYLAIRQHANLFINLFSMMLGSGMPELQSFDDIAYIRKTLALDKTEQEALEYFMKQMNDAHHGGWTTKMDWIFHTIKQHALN
Sequence of PI3Kα (P27986 whole entry partner): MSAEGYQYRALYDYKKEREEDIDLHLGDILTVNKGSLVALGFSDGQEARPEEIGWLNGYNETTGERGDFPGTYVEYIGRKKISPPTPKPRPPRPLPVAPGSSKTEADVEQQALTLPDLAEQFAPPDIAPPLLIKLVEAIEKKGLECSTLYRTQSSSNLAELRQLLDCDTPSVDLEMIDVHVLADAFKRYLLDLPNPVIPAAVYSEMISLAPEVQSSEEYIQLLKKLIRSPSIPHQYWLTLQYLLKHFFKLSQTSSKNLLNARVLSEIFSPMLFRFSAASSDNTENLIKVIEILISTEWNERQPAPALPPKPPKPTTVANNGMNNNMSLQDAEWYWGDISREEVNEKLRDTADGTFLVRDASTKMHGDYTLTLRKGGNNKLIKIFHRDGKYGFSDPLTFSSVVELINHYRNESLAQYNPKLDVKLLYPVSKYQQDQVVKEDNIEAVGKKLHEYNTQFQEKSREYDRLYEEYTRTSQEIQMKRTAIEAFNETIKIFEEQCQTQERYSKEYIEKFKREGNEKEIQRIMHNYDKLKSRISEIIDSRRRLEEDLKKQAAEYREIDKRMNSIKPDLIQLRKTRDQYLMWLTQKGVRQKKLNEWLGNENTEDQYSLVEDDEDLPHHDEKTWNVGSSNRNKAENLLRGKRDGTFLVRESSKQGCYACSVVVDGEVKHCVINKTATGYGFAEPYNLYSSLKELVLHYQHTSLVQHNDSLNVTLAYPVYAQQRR

Turning to `C=CC(=O)Nc1cccc(Oc2nc(Nc3ccc(N4CCN(C)CC4)cc3)nc3ccsc23)c1` [Olmutinib, olmutinib, reference compound], the IC50 in the data set on LO2 cells was 25.8 ± 1.31 µM; against PI3Kα, over 10 µM; in the data set on A549 cells, 4.29 ± 0.21 µM; with A549 (EGFR^WT) cells, 0.225 µM; in the data set on H1975 cells, 0.52 ± 0.1 µM; in data set [2], 0.0092 µM. The IC50 with NCI-H460 cells was 5.29 ± 0.59 µM; in the data set on MCF-7 cells, 26.9 ± 0.93 µM; in [3] it was 0.01 µM. Moreover, the toxic side effects entry in data set [1] was “palmoplantar keratoderma and diarrhea”.
